# Results as given in US20180209956A1, “HTS Assay for Identifying Small Molecule Inhibitors of RAD52 and Uses of Identified Small Molecule Inhibitors for Treatment and Prevention of BRCA-Deficient Malignancies” (University of Iowa Research Foundation, priority 2015, published 2018).
# Columns and labels:
# RAD52 = biological target: T1, RAD52 (Homo sapiens, UniProt P43351); assay: WaterLOGSY NMR analysis of compound binding to RAD52; set-up: made in house; conditions: 20 or 40 μM compound, 3.3 μM RAD52
# T1 sequence (P43351 1-418): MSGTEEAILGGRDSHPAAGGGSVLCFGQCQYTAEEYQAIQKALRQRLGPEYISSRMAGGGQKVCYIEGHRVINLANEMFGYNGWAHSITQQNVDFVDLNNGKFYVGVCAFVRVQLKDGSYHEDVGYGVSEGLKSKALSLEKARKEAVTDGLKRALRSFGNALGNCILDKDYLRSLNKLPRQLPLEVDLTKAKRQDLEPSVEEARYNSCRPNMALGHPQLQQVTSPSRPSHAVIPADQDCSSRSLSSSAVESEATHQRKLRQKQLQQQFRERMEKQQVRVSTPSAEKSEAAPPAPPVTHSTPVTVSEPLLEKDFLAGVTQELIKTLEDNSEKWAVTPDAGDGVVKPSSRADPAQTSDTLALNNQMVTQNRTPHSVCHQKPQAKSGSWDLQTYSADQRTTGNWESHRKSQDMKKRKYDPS
# Description: In WaterLOGSY spectrum, if a compound binds to a protein, the compound will receive negative nuclear Overhauser effects (NOEs) due to the slow tumbling of the protein-compound complex, leading to a positive WaterLOGSY peak.
# (§1) WaterLOGSY NMR analysis of the compound binding to RAD52 and RPA proteins: Compound binding to RAD52 and RPA proteins was analyzed using water-ligand observation with gradient spectroscopy (WaterLOGSY) NMR experiments (Dalvit et al., 2001, Dalvit et al., 2000). The WaterLOGSY spectra of compounds in the presence of RAD52 or RPA were acquired using a water NOE mixing time of 1 s and a T2 relaxation filter of 50 ms just before data acquisition to suppress the broad signals derived from protein. The protein buffer used in the experiments contains 10 mM Tris-d11, 75 mM KCl, 0.25 mM EDTA, pH 7.5, and 10% D20. All NMR data were acquired on a Bruker Avance II 800 MHz NMR spectrometer equipped with a sensitive cryoprobe and recorded at 25° C. The ^1H chemical shifts were referenced to 2,2-dimethyl-2-silapentane-5-sulfonate (DSS). NMR spectra were processed using NMR Pipe (Delaglio et al., 1995) and analysed using NMR View (Johnson and Blevins, 1994).
# [1] = biological target: T2, RAD52-RPA-Cy3-dT30-Cy5 complex (Homo sapiens, UniProt P43351); assay: FRET-based RAD52 binding/wrapping of RPA-coated ssDNA
# T2 construct: made in house
# T2 sequence (P27694 whole entry partner, one chain of several): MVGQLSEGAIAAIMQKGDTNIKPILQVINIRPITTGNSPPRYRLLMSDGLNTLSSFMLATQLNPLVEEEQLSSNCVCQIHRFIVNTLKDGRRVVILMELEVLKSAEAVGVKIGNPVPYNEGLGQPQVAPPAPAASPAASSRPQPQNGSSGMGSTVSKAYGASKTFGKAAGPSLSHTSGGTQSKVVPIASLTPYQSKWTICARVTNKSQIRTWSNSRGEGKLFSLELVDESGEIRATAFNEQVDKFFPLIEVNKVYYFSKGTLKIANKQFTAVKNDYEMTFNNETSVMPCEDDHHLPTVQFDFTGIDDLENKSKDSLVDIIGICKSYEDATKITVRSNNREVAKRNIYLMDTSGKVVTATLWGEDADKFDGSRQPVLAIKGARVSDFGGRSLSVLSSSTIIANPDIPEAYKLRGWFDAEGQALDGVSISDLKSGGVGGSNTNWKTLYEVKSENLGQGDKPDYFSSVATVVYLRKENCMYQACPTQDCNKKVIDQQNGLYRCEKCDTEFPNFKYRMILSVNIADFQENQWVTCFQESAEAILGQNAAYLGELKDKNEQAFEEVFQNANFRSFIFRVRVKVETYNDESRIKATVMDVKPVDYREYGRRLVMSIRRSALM
# T2 sequence (P15927 whole entry partner, one chain of several): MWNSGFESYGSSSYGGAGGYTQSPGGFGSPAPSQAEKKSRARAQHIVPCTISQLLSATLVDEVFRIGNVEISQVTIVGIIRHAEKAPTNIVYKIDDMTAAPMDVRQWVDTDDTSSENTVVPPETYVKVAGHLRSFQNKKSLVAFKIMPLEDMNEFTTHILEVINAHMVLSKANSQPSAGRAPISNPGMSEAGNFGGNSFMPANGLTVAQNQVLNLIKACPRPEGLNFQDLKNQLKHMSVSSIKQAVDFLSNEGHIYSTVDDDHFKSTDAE
# T2 sequence (P35244 whole entry partner, one chain of several): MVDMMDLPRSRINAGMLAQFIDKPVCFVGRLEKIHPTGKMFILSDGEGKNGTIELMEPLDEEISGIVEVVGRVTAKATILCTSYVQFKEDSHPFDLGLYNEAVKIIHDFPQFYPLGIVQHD
# Description: RPA binds ssDNA with high affinity and extends the ssDNA to its contour length.
# (§2) where FRET0 is the initial FRET value of RAD52-ssDNA complex in the absence of the compound and FRETmin is the FRET value at complete inhibition. FRET values were calculated as an average of three or more independent annealing reactions plotted against the concentration of the compound. Inhibition of the RAD52-dsDNA interaction was assayed in a similar experiment, except the stoichiometric complexes containing 1 nM molecules of Cy3-Oligo28-Cy5 duplex DNA and 10 nM RAD52. […] In all experiments, the FRET values for each data point were corrected for the effects of the compounds on the respective substrate in the absence of RAD52.
# RPA = biological target: T3, RPA (Homo sapiens, UniProt P15927+P27694+P35244); assay: WaterLOGSY NMR analysis of compound binding to RPA; conditions: 20 or 40 μM compound, 3.3 μM RPA
# T3 construct: made in house
# T3 sequence (P27694 whole entry): as the sequence (P27694 whole entry partner, one chain of several) above
# T3 sequence (P15927 whole entry): as the sequence (P15927 whole entry partner, one chain of several) above
# T3 sequence (P35244 whole entry): as the sequence (P35244 whole entry partner, one chain of several) above
# Source text: Compounds ‘1’ and ‘6’ physically interact with RAD52: To confirm that the selected compounds bind RAD52, we employed water-ligand observation with gradient spectroscopy (WaterLOGSY), an NMR technique, which is based on transfer of magnetization from bulk water to the protein-bound compound of interest (Dalvit et al., 2001, Dalvit et al., 2000). In WaterLOGSY spectrum, if a compound binds to a protein, the compound will receive negative nuclear Overhauser effects (NOEs) due to the slow tumbling of the protein-compound complex, leading to a positive WaterLOGSY peak.
# as §1
# RAD52-dsDNA interaction = biological target: T4, RAD52-dsDNA interaction (Homo sapiens, UniProt P43351); assay: FRET-based RAD52-dsDNA binding assay; conditions: 1 nM dsDNA, 10 nM RAD52
# T4 construct: made in house
# T4 sequence (P43351 1-418): T1 sequence (P43351 1-418)
# Source text: These assays utilize two complementary single stranded 28-nucleotide-long substrates, which contain either Cy3 (T-28) or Cy5 (P-28) incorporated into the middle of the respective DNA strand. When the substrates are annealed by RAD52, the Cy3 and Cy5 dyes are separated by 3 base pairs and yield a high FRET signal (FIG. 2 Supplement 2). […] The annealing reactions were initiated by mixing two half reactions and observing the change in FRET over time in the presence of varying concentrations of small molecules. An increasing FRET value over time indicates formation of the dsDNA duplex which brings the two dyes in close proximity (FIG. 2 Supplement 2). Fitting the annealing data to a double exponential allowed us to calculate and compare the final extent of annealing at varying concentrations of each compound compared to RAD52 alone. We plotted the final extent of annealing vs the concentration of the compound and calculated an IC50 of annealing inhibition.
# where FRET0 is the initial FRET value of RAD52-ssDNA complex in the absence of the compound and FRETmin is the FRET value at complete inhibition. FRET values were calculated as an average of three or more independent annealing reactions plotted against the concentration of the compound. […]
# RPA-ssDNA interaction = biological target: T5, RPA-ssDNA interaction (Homo sapiens, UniProt P15927+P27694+P35244); assay: FRET titration of the RPA-Cy3-dT30-Cy5 complex; assay type: binding
# T5 construct: made in house
# T5 sequence (P27694 whole entry): as the sequence (P27694 whole entry partner, one chain of several) above
# T5 sequence (P15927 whole entry): as the sequence (P15927 whole entry partner, one chain of several) above
# T5 sequence (P35244 whole entry): as the sequence (P35244 whole entry partner, one chain of several) above
# Source text: Compounds ‘1’ and ‘6’ inhibit RAD52 binding to and annealing of the RPA-coated ssDNA: In the cell, ssDNA is typically found in complex with Replication protein A (RPA), which is the major eukaryotic ssDNA-binding protein essential for DNA replication, repair and recombination (Wold, 1997, Oakley and Patrick, 2010, Chen and Wold, 2014). The RPA-ssDNA complex is a natural substrate for the RDA52-mediated strand annealing. To confirm that compounds ‘1’ and ‘6’ can inhibit the RAD52 binding to and annealing of the RPA-coated ssDNA we added stoichiometric amounts of RPA (1 RPA per 30 nucleotides of ssDNA) to the FRET-based ssDNA binding/wrapping and ssDNA annealing experiments described above. RPA binds ssDNA with high affinity and extends the ssDNA to its contour length. In our assays such an extension manifests as a distinct FRET state of ˜0.3, which is readily distinguished from a FRET state of ˜0.48 of free Cy3-dT30-Cy5 ssDNA, as well as ˜0.63 FRET of the stoichiometric ssDNA-RPA-RAD52 complex (see FIG. 2 Supplement 1 and (Grimme and Spies, 2011) for details). […] Both, however, inhibited the RAD52 binding to and wrapping of RPA-coated ssDNA with IC50 values identical to those determined without RPA (FIG. 2e and FIG. 3e).
# as §2
# RAD52-ssDNA interaction = biological target: T6, RAD52-ssDNA interaction (Homo sapiens, UniProt P43351); assay: FRET-based ssDNA binding and wrapping assay (RAD52-Cy3-dT30-Cy5 complex); conditions: FRET-based competition assay; read-out: IC50, RAD52-ssDNA interaction
# T6 construct: made in house
# T6 sequence (P43351 1-418): T1 sequence (P43351 1-418)
# Description: We titrated increasing amounts of each compound into a cuvette containing preformed stoichiometric RAD52-Cy3-dT30-Cy5 complexes (1 nM Cy3-dT30-Cy5 and 8 nM RAD52). […] At each concentration of the compound, the FRET signal was adjusted for the change in Cy3 and Cy5 fluorescence in the presence of the compound, but in the absence of protein.
# FRET-based DNA binding and annealing assays: FRET-based ssDNA binding, dsDNA binding, and annealing assays were carried out as previously described (Grimme et al., 2010, Grimme and Spies, 2011) using Cary Eclipse spectrofluorimeter (Varian) at 25° C. in buffer containing 30 mM Tris-Acetate pH7.5, 1 mM DTT, and 0.1 mg/mL BSA. Cy3 dye was excited at 530 nm and its emission was monitored at 565 nm. Emission of Cy5 acceptor fluorophore excited through the energy transfer from Cy3 donor is monitored at 660 nm simultaneously with emission of Cy3 dye. Both the excitation and the emission slit widths were set to 10 nm.
# All experiments were performed in triplicates, and the data are shown as averages and standard deviations for three independent measurements. To remove possible experimental artifacts associated with chromogenic or fluorogenic compounds, as well as with the compounds that may quench or enhance Cy3 or Cy5 fluorescence, we also performed control titrations whereby we titrated each compound into 1 nM Cy3-dT30-Cy5 in the absence of RAD52. For each compound concentration we subtracted the difference in the FRET signal in the presence and absence of the compound from the respective FRET signal in the presence of RAD52. The FRET signal corrected for the compound fluorescence was calculated using the equation: […]
# as previously described (Grimme et al., 2010, Grimme and Spies, 2011) and plotted as a function of compound concentration and fitted to the following inhibition model”
# as §2
compound,measurement,setting,value
"O=C(O[C@@H]1O[C@@H]2COC(=O)c3cc(O)c(O)c(O)c3-c3c(cc(O)c(O)c3O)C(=O)O[C@H]([C@H]1O)[C@@H]2O)c1cc(O)c(O)c(O)c1 [NP-004255, corilagin]",Binding to RAD52 by WaterLOGSY,RAD52,physically interacts with RAD52 protein
same,IC50,[1],500 ± 100 nM
same,Binding to RPA by WaterLOGSY,RPA,bound RPA
same,Effect on the RAD52-dsDNA interaction,RAD52-dsDNA interaction,no effect
same,Effect on the RPA-ssDNA interaction,RPA-ssDNA interaction,did not affect the RPA-ssDNA complex
same,IC50,RAD52-ssDNA interaction,1500 ± 200 nM
